Results: patent US10398697B2, “Solid solution comprising (6S)-5-methyl tetrahydrofolic acid or salt thereof, and preparation and use thereof” (priority 2014, dated 2019)
Read-outs that look alike come from different tables or passages of the source.

Experiments:
[1] = tested on: T lymphocyte proliferation; assay: T lymphocyte proliferation, stimulus with Con A (CPM); type: cell-based
[2] = tested on: mice; assay: Acute toxicity study of JK12A; type: in vivo; conditions: dose of 2000 mg/kg
[3] = tested on: T lymphocyte; assay: Cell survival rate (OD) of lymphocytes with JK12A; type: cell-based
[4] = tested on: mice; assay: Single dose toxicity of JK1303, kidney findings after 14 days; type: in vivo; conditions: 14 days after a single dose of 1000 mg/kg
[5] = tested on: mice; conditions: after harmful impurities eliminated by the technology of the invention
[6] = acute toxicity test data published at present; cited from earlier work
[7] = Concentration determined 0.164 M
[8] = Concentration determined 0.41 M
[9] = Concentration determined 1.024 M
[10] = Concentration determined 2.56 M
[11] = Concentration determined 16.0 M
[12] = Concentration determined 100.000 µM
[13] = Amount of VC 0, day 0, 25° C. and 40% humidity
[14] = Amount of VC 0, day 7, 25° C. and 40% humidity
[15] = Amount of VC 0, day 15, 25° C. and 40% humidity
[16] = Amount of VC 0, day 30, 25° C. and 40% humidity
[17] = Amount of VC 0, day 60, 25° C. and 40% humidity
[18] = Amount of VC 20%, day 0, 25° C. and 40% humidity
[19] = Amount of VC 20%, day 7, 25° C. and 40% humidity
[20] = Amount of VC 20%, day 15, 25° C. and 40% humidity
[21] = Amount of VC 20%, day 30, 25° C. and 40% humidity
[22] = Amount of VC 20%, day 60, 25° C. and 40% humidity
[23] = Amount of VC 100%, day 0, 25° C. and 40% humidity
[24] = Amount of VC 100%, day 7, 25° C. and 40% humidity
[25] = Amount of VC 100%, day 15, 25° C. and 40% humidity
[26] = Amount of VC 100%, day 30, 25° C. and 40% humidity
[27] = Amount of VC 100%, day 60, 25° C. and 40% humidity
[28] = Amount of VC 500%, day 0, 25° C. and 40% humidity
[29] = Amount of VC 1000%, day 0, 25° C. and 40% humidity
[30] = Amount of VC 10000%, day 0, 25° C. and 40% humidity

In the case of CN1C2CNC3=NC(N)=NCC31N(c1ccc(C(=O)NC(CCC(=O)O)C(=O)O)cc1)C2 (centres unmarked) [JK12A], the “effect on T lymphocyte proliferation” value [1] is reported as “significant inhibitory effect”, the “T cell proliferation Comprehensive evaluation Percent enhancement/inhibition” value [1, 7] is reported as −8% and the “T lymphocyte Stimulus with Con A Mean CPM” value (from here on “T lymphocyte Stimulus”) [1, 7] is reported as 40459 CPM. The “T cell proliferation Comprehensive evaluation Percent enhancement/inhibition” value [1, 8] was −68%, the “T lymphocyte Stimulus” value [1, 8] was 14073 CPM and the “T cell proliferation Comprehensive evaluation Percent enhancement/inhibition” value [1, 9] was −60%. The “T lymphocyte Stimulus” value [1, 9] was 17590 CPM, the “T cell proliferation Comprehensive evaluation Percent enhancement/inhibition” value [1, 10] was −42% and the “T lymphocyte Stimulus” value [1, 10] was 25507 CPM. The “T cell proliferation Comprehensive evaluation Percent enhancement/inhibition” value ([1]; Concentration determined 6.4 M) was −30%, the “T lymphocyte Stimulus” value ([1]; Concentration determined 6.4 M) was 30784 CPM and the “T cell proliferation Comprehensive evaluation Percent enhancement/inhibition” value [1, 11] was −18%. The “T lymphocyte Stimulus” value [1, 11] was 36061 CPM, the “T cell proliferation Comprehensive evaluation Percent enhancement/inhibition” value ([1]; Concentration determined […]) was −1% and the “T lymphocyte Stimulus” value ([1]; Concentration determined […]) was 43537 CPM. The “anatomical findings in liver and kidney” value [2] was “no significant changes”, the Cell survival rate [3, 12] was 73% and the “Mean OD” value [3, 12] was 0.089. For the same molecule, the Cell survival rate [3, 8] was 75%, the “Mean OD” value [3, 8] was 0.052 and the Cell survival rate [3, 9] was 59%. For the same molecule, the “Mean OD” value [3, 9] was 0.073, the Cell survival rate [3, 10] was 62% and the “Mean OD” value [3, 10] was 0.076. For the same molecule, the Cell survival rate ([3]; Concentration determined 6.4 M) was 84%, the “Mean OD” value ([3]; Concentration determined 6.4 M) was 0.103 and the Cell survival rate [3, 11] was 92%. The “Mean OD” value [3, 11] was 0.113, the Cell survival rate ([3]; Concentration determined […]) was 89% and the “Mean OD” value ([3]; Concentration determined […]) was 0.109.

With CN1C2CNC3=NC(N)=NCC31N(c1ccc(C(=O)O)cc1)C2 (centres unmarked) [JK1303] the “anatomical finding in the renal tubules” value [4] was “a large number of vacuoles” and the renal toxicity finding [4] was “severe renal tubular necrosis”.

For “(6S)-5-methyl tetrahydrofolic acid calcium salt [Example 11]”, the “(6S)-5-methyl tetrahydrofolic acid calcium salt content” value [13] was 99.95%, the JK12A content [13] was 0.03% and the “(6S)-5-methyl tetrahydrofolic acid calcium salt content” value [14] was 99.90%. For the same molecule, the JK12A content [14] was 0.06%, the “(6S)-5-methyl tetrahydrofolic acid calcium salt content” value [15] was 99.85% and the JK12A content [15] was 0.12%. The “(6S)-5-methyl tetrahydrofolic acid calcium salt content” value [16] was 99.63%, the JK12A content [16] was 0.25% and the “(6S)-5-methyl tetrahydrofolic acid calcium salt content” value [17] was 99.40%. The JK12A content [17] was 0.46%, the “(6S)-5-methyl tetrahydrofolic acid calcium salt content” value [18] was 99.95% and the JK12A content [18] was 0.03%. The “(6S)-5-methyl tetrahydrofolic acid calcium salt content” value [19] was 99.94%, the JK12A content [19] was 0.04% and the “(6S)-5-methyl tetrahydrofolic acid calcium salt content” value [20] was 99.89%. The JK12A content [20] was 0.08%, the “(6S)-5-methyl tetrahydrofolic acid calcium salt content” value [21] was 99.71% and the JK12A content [21] was 0.17%. For the same molecule, the “(6S)-5-methyl tetrahydrofolic acid calcium salt content” value [22] was 99.50%, the JK12A content [22] was 0.22% and the “(6S)-5-methyl tetrahydrofolic acid calcium salt content” value [23] was 99.95%. For the same molecule, the JK12A content [23] was 0.03%, the “(6S)-5-methyl tetrahydrofolic acid calcium salt content” value [24] was 99.94% and the JK12A content [24] was 0.03%. For the same molecule, the “(6S)-5-methyl tetrahydrofolic acid calcium salt content” value [25] was 99.90%, the JK12A content [25] was 0.05% and the “(6S)-5-methyl tetrahydrofolic acid calcium salt content” value [26] was 99.90%. For the same molecule, the JK12A content [26] was 0.05%, the “(6S)-5-methyl tetrahydrofolic acid calcium salt content” value [27] was 99.86% and the JK12A content [27] was 0.10%. For the same molecule, the “(6S)-5-methyl tetrahydrofolic acid calcium salt content” value [28] was 99.95%, the JK12A content [28] was 0.03% and the “(6S)-5-methyl tetrahydrofolic acid calcium salt content” value (Amount of VC 500%, day 7, 25° C. and 40% humidity) was 100.00%. The “(6S)-5-methyl tetrahydrofolic acid calcium salt content” value (Amount of VC 500%, day 15, 25° C. and 40% humidity) was 100.00%, the “(6S)-5-methyl tetrahydrofolic acid calcium salt content” value (Amount of VC 500%, day 30, 25° C. and 40% humidity) was 99.98% and the “(6S)-5-methyl tetrahydrofolic acid calcium salt content” value (Amount of VC 500%, day 60, 25° C. and 40% humidity) was 99.96%. For the same molecule, the “(6S)-5-methyl tetrahydrofolic acid calcium salt content” value [29] was 99.95%, the JK12A content [29] was 0.03% and the “(6S)-5-methyl tetrahydrofolic acid calcium salt content” value (Amount of VC 1000%, day 7, 25° C. and 40% humidity) was 100.00%. The “(6S)-5-methyl tetrahydrofolic acid calcium salt content” value (Amount of VC 1000%, day 15, 25° C. and 40% humidity) was 100.00%, the “(6S)-5-methyl tetrahydrofolic acid calcium salt content” value (Amount of VC 1000%, day 30, 25° C. and 40% humidity) was 100.00% and the “(6S)-5-methyl tetrahydrofolic acid calcium salt content” value (Amount of VC 1000%, day 60, 25° C. and 40% humidity) was 100.00%. For the same molecule, the “(6S)-5-methyl tetrahydrofolic acid calcium salt content” value [30] was 99.95%, the JK12A content [30] was 0.03% and the “(6S)-5-methyl tetrahydrofolic acid calcium salt content” value (Amount of VC 10000%, day 7, 25° C. and 40% humidity) was 100.00%. For the same molecule, the “(6S)-5-methyl tetrahydrofolic acid calcium salt content” value (Amount of VC 10000%, day 15, 25° C. and 40% humidity) was 100.00%, the “(6S)-5-methyl tetrahydrofolic acid calcium salt content” value (Amount of VC 10000%, day 30, 25° C. and 40% humidity) was 100.00% and the “(6S)-5-methyl tetrahydrofolic acid calcium salt content” value (Amount of VC 10000%, day 60, 25° C. and 40% humidity) was 100.00%.

In the case of calcium (6S)-5-methyltetrahydrofolate, the response of mice ([5]; dosage of 15000 mg/kg) is given as “no abnormal response”, the “maximum tolerable dose (MTD)” value ([5]; mice) is given as “greater than 15 g/kg” and the “LD50 (median lethal dose)” value [6] is given as 2000 mg/kg.
